Reference: US5565435A (Kabushiki Kaisha Hayashibara Seibutsu Kagaku Kenkyujo, priority 1991, dated 1996)
In brackets after ≈: the same amount, converted by molar mass.

Assays:
[1] = Antioxidation activity (hydroperoxide formed by oxidation of linoleic acid, HPLC); details: 200 ppm, 50° C., light-shielded
Procedure: Ten ml of about one % linoleic acid in ethanol solution, 10 ml of 50 mM phosphate buffer and 5 ml water were mixed, and 5 ml aliquots of the mixture were distributed to 5 ml-flasks. […] A half ml of solution was sampled from each flask at a prescribed time interval, and the sampled solution was subjected to high-performance liquid chromatography (HPLC) to analyze the amount of hydroperoxide which was formed as a result of the oxidation of linoleic acid. The conditions used in the analysis of hydroperoxide were as follows:
Apparatus : WATERS MODEL M-6000A, a pump system commercialized by Japan Waters Ltd., Tokyo, Japan;
Column : ODS-M column, a column commercialized by Shimadzu Techno-Research,Inc., Kyoto, Japan;
Column temperature : 35° C.
Eluate : water:methanol:acetic acid =75:25:0.1
Detection wave length: at 235 nm

Solubility in solvent = type: physicochemical; details: 25° C. water (pH 7)

Row | Structure (SMILES) | Relative intensity determined with the peak area corresponding to hydroperoxide, sampling day 0 ([1]; day 0, Control 0.3) | Relative intensity determined with the peak area corresponding to hydroperoxide, sampling day 4 ([1]; day 4, Control 1.5) | Relative intensity determined with the peak area corresponding to hydroperoxide, sampling day 7 ([1]; day 7, Control 5.3) | Relative intensity determined with the peak area corresponding to hydroperoxide, sampling day 8 ([1]; day 8, Control 7.1) | solubility (Solubility in solvent) [µg/mL]
1 | Cc1c(C)c2c(c(C)c1O)CCC(C)(CCCC(C)CCCC(C)CCCC(C)C)O2 (racemic) [dl-α-Tocopherol] | 0.3 | 1.1 | 4.5 | 6.0 | 
2 | O=c1c(O)c(-c2ccc(O)c(O)c2)oc2cc(O)cc(O)c12 [quercetin] |  |  |  |  | ~2 (≈ 6.62 µM)
